Experimental data reported in patent publication US20110257220A1, “3,11 b-cis-Dihydrotetrabenazine for the Treatment of Schizophrenia and Other Psychoses” (CAMBRIDGE LABORATORIES (IRELAND) LIMITED, priority 2005, published 2011).

Columns and labels:
Adrenergic α2A Receptor = biological target: T1, Adrenergic α2A Receptor (Homo sapiens, UniProt P08913); test: Adrenergic α2A receptor radioligand binding ([3H] MK-912); conditions: 10 μM solution; for inhibition at 10 µM: read-out: Percentage Inhibition of Specific Binding, α2A Receptor
T1 construct: expressed in transfected cells; host or cells: insect Sf9 cells
T1 sequence (P08913 1-465): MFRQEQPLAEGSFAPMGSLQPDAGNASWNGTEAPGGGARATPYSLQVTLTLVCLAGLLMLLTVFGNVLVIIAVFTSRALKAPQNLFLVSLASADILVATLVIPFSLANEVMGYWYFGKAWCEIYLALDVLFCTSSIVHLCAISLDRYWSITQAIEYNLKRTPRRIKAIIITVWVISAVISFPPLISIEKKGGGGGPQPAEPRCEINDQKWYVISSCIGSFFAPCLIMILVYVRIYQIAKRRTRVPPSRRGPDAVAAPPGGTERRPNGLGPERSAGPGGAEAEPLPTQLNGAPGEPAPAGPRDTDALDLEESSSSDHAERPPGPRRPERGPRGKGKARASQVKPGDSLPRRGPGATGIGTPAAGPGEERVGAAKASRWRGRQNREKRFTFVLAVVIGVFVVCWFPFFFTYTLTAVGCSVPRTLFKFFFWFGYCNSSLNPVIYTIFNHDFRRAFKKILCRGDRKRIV
Experimental: (§1) The four dihydrotetrabenazine isomers A, B, C and D were subjected to specific binding assays to test their ability to bind to the receptors and transporter proteins described below. The results are set out in Table 5
(a) Adrenergic α2A Receptor:
• Reference: S. Uhlen et al. J. Pharmacol. Exp. Ther., 271:1558-1565 (1994) • Source: Human recombinant insect Sf9 cells • Ligand: 1 nM [^3H]

Dopamine D1 Receptor = biological target: T2, Dopamine D1 Receptor (Homo sapiens, UniProt P21728); test: Dopamine D1 receptor radioligand binding ([3H] SCH-23390); conditions: 10 μM solution; for inhibition at 10 µM: read-out: Percentage Inhibition of Specific Binding, D1 Receptor
T2 construct: expressed in transfected cells; host or cells: CHO cells
Experimental: as §1
(c) Dopamine D1 Receptor:
• Reference: Dearry et al., Nature, 347:72-76, (1990) • Source: Human recombinant CHO cells • Ligand: 1.4 nM [3H]

Dopamine D2L Receptor = biological target: T3, Dopamine D2L Receptor (Homo sapiens, UniProt P14416); test: Dopamine D2L receptor radioligand binding ([3H] Spiperone); conditions: 10 μM solution; for inhibition at 10 µM: read-out: Percentage Inhibition of Specific Binding, D2L Receptor
T3 construct: expressed in transfected cells; host or cells: CHO cells
Experimental: as §1
(d) Dopamine D2L, Receptor:
• Reference: Bunzo et al., Nature, 336:783-787 (1988) • Source: Human recombinant CHO cells • Ligand: 0.16 nM [3H]

[1] = test system: Imidazoline I2 (Central) Receptor; test: Imidazoline I2 (central) receptor radioligand binding ([3H] Idazoxan); design: species or system Wistar rat; conditions: 10 μM solution
Experimental: as §1
(f) Imidazoline I2 (Central) Receptor:
• Reference: Brown et al., Brit. I Pharmacol., 99:803-809, (1990) • Source: Wistar rat cerebral cortex • Ligand: 2 nM [3H] Idazoxan • Vehicle: 1% DMSO • Incubation time/Temp: 30 minutes @ 25° C. • Incubation buffer: 50 mM Tris-HCl, 0.5 mM EDTA, pH 7.4 at 25° C. • Non Specific ligand: 1 μM Idazoxan • Kd: 4 nM • Bmax: 0.14 pmole/mg protein • Specific binding: 85% • Quantitation method: Radioligand binding • Significance criteria: ≧50% of maximum stimulation or inhibition

Sigma σ1 Receptor = biological target: T4, Sigma σ1 Receptor (Homo sapiens, UniProt Q99720); test: Sigma σ1 receptor radioligand binding ([3H] Haloperidol); conditions: 10 μM solution; for inhibition at 10 µM: read-out: Percentage Inhibition of Specific Binding, σ1 Receptor
T4 construct: endogenous in cells; host or cells: Jurkat cells
Experimental: as §1
• Reference: Ganaphthy et al., Pharmacol. Exp. Ther., 289:251-260, (1999) • Source: Human jurkat cells • Ligand: 8 nM [3H]

[2] = biological target: T5, Serotonin Transporter (SERT) (Homo sapiens, UniProt P31645); test: Serotonin transporter radioligand binding ([125I] RTI-55); conditions: for inhibition at 10 µM: read-out: Percentage Inhibition of Specific Binding, SERT
T5 construct: expressed in transfected cells; host or cells: HEK-293 cells
Experimental: as §1
(i) Serotonin Transporter (SERT):
• Reference: Gu et al., J. Biol. Chem., 269(10):7124-7130, (1994) • Source: Human recombinant HEK-293 cells • Ligand: 0.15 nM [125I] RTI-55 • Vehicle: 1% DMSO • Incubation time/Temp: 3 hours @ 4° C. • Incubation buffer: 100 mM NaCl, 50 mM Tris HCl, 1 μM Leupeptin, 10 μM PMSF, pH 7.4 • Non Specific ligand: 10 μM Imipramine • Kd: 0.17 nM • Bmax: 0.41 pmole/mg protein • Specific binding: 95% • Quantitation method: Radioligand binding • Significance criteria: ≧50% of maximum stimulation or inhibition

α2c Adrenergic receptor = biological target: T6, α2c Adrenergic receptor (Homo sapiens, UniProt P18825); test: α2c Adrenergic receptor radioligand binding ([3H] MK-912); conditions: 10 μM solution; for inhibition at 10 µM: read-out: Percentage Inhibition of Specific Binding, α2c receptor
T6 construct: expressed in transfected cells; host or cells: insect Sf9 cells
T6 sequence (P18825 1-462): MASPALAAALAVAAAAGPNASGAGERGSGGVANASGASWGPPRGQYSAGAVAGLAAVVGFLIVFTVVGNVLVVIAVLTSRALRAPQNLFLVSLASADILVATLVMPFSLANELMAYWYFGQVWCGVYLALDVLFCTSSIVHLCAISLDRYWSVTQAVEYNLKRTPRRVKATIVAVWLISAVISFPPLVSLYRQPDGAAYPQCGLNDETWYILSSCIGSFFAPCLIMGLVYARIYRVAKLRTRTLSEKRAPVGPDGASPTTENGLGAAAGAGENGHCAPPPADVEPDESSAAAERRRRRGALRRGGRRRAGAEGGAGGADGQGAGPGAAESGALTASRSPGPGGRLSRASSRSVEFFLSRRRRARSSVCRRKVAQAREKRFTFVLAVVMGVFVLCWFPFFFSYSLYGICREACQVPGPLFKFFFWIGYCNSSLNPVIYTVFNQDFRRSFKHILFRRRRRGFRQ
Experimental: as §1
(k) α2, Adrenergic Receptor
α2c Adrenergic receptor binding activity was determined using the method of Uhlen et al., J. Pharmacol. Exp. Ther. (1994), 271:1558-1565, and the following conditions: • Source: Human recombinant insect Sf9 cells • Ligand: 1 nM [^3H]

[3] = biological target: T7, Serotonin (5-hydroxytryptamine) 5-HT2b Receptor (Homo sapiens, UniProt P41595); test: 5-HT2b receptor radioligand binding ([3H] LSD); conditions: 10 μM solution; for inhibition at 10 µM: read-out: Percentage Inhibition of Specific Binding, 5-HT2b receptor
T7 construct: expressed in transfected cells; host or cells: CHO-K1 cells

[4] = biological target: T8, Serotonin (5-hydroxytryptamine) 5-HT6 Receptor (Homo sapiens, UniProt P50406); test: 5-HT6 receptor radioligand binding ([3H] LSD); conditions: 10 μM solution; for inhibition at 10 µM: read-out: Percentage Inhibition of Specific Binding, 5-HT6 receptor
T8 construct: expressed in transfected cells; host or cells: HeLa cells
Excerpt: as §1

T5 sequence (P31645 whole entry): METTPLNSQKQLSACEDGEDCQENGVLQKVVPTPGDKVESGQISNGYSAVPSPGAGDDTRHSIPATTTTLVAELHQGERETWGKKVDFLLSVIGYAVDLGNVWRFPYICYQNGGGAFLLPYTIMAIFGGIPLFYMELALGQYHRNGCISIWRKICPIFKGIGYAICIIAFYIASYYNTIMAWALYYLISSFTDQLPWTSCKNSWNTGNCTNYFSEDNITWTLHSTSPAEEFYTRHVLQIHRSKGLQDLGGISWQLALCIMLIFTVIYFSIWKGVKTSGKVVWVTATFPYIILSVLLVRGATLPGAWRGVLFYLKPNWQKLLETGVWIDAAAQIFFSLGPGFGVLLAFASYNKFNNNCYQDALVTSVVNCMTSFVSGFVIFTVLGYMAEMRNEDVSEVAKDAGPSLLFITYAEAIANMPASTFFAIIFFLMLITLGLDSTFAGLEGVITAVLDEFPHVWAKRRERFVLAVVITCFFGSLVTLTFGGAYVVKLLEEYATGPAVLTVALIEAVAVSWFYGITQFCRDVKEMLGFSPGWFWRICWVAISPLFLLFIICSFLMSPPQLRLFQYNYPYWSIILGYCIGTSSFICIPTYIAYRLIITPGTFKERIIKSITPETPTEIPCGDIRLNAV
T7 sequence (P41595 whole entry): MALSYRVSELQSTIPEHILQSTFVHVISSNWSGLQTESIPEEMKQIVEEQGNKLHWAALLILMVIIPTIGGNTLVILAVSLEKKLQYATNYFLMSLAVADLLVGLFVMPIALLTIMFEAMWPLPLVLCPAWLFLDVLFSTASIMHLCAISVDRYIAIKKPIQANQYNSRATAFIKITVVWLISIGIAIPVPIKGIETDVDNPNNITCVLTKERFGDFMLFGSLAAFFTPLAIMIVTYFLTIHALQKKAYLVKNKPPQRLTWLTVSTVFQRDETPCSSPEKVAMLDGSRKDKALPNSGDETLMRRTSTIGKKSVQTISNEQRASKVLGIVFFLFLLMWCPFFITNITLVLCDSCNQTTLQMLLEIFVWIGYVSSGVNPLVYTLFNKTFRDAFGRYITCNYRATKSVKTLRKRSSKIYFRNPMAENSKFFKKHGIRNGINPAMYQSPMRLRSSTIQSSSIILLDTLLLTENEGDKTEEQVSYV
T3 sequence (P14416 whole entry): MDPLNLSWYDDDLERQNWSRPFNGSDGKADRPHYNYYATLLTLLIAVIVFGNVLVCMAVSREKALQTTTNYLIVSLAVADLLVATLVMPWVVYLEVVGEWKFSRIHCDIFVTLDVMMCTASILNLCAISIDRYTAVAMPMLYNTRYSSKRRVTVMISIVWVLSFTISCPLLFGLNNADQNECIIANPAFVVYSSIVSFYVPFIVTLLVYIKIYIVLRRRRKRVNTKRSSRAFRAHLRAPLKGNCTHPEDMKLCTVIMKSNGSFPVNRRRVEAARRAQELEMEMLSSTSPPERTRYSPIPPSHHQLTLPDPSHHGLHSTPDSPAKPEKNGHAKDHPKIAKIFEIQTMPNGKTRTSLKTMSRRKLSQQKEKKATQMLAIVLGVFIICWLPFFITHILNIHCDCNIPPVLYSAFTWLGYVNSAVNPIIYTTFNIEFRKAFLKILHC
T4 sequence (Q99720 whole entry): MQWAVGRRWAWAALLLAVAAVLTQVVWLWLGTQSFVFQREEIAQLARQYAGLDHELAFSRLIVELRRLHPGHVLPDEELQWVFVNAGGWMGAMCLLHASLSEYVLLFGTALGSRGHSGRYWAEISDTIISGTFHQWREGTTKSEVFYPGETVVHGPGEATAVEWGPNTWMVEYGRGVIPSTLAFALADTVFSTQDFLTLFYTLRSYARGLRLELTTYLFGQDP
T2 sequence (P21728 whole entry): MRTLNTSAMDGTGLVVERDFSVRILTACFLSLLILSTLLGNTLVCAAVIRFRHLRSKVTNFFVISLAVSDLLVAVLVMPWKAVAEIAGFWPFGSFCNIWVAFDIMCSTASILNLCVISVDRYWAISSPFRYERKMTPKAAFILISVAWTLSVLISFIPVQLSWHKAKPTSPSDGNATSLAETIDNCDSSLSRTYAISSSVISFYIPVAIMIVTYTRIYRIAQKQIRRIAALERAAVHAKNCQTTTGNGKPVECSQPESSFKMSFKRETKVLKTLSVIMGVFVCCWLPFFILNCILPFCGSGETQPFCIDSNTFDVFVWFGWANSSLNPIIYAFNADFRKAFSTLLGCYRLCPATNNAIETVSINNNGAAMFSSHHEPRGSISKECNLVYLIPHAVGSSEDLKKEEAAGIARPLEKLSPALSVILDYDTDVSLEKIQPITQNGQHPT
T8 sequence (P50406 whole entry): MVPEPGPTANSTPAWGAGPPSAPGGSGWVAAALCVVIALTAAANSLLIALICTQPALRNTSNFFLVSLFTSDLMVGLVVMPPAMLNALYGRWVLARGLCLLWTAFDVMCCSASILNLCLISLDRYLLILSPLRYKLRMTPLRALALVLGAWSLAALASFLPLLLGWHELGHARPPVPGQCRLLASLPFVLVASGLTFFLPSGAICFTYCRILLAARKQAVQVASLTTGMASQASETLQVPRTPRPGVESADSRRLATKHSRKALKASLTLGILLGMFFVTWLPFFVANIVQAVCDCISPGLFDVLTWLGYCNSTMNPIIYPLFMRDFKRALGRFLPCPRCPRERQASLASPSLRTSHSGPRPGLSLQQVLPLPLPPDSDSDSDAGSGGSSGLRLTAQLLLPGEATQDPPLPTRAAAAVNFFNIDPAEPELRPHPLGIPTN

`COc1cc2c(cc1OC)[C@@H]1C[C@@H](O)[C@H](CC(C)C)CN1CC2` (single isomer, unassigned) [Isomer A] showed an inhibition at 10 µM (Adrenergic α2A Receptor) of 86%, an inhibition at 10 µM (Dopamine D1 Receptor) of 78% and an inhibition at 10 µM (Dopamine D2L Receptor) of 87%. The “Percentage Inhibition of Specific Binding, I2 Receptor” value (“Percentage Inhibition … I2 Receptor” below) [1] was 74%, the inhibition at 10 µM (Sigma σ1 Receptor) was 48% and the inhibition at 10 µM ([2]; 10 μM solution) was 19%. The inhibition at 10 µM (α2c Adrenergic receptor) was 56%, the inhibition at 10 µM [3] was 74% and the inhibition at 10 µM [4] was 51%.

Work on `COc1cc2c(cc1OC)[C@H]1C[C@H](O)[C@@H](CC(C)C)CN1CC2` (single isomer, unassigned) [Isomer B] yielded an inhibition at 10 µM (Adrenergic α2A Receptor) of 12%, an inhibition at 10 µM (Dopamine D1 Receptor) of 1% and an inhibition at 10 µM (Dopamine D2L Receptor) of 16%. The “Percentage Inhibition … I2 Receptor” value [1] was 8%, the inhibition at 10 µM (Sigma σ1 Receptor) was 82% and the inhibition at 10 µM ([2]; 10 μM solution) was 86%. The inhibition at 10 µM (α2c Adrenergic receptor) was -6%, the inhibition at 10 µM [3] was 10% and the inhibition at 10 µM [4] was 10%.

`COc1cc2c(cc1OC)C1CC(O)C(CC(C)C)CN1CC2` (single isomer, unassigned) [Isomer C] gave an inhibition at 10 µM (Adrenergic α2A Receptor) of 13%, an inhibition at 10 µM (Dopamine D1 Receptor) of 6% and an inhibition at 10 µM (Dopamine D2L Receptor) of -14%. The “Percentage Inhibition … I2 Receptor” value [1] was 0%, the inhibition at 10 µM (Sigma σ1 Receptor) was 59% and the inhibition at 10 µM ([2]; 10 μM solution) was 77%. The IC50 ([2]; value in parentheses, unit inferred) was 2750 nM, the inhibition at 10 µM (α2c Adrenergic receptor) was 3% and the inhibition at 10 µM [3] was 14%. It also gave an inhibition at 10 µM [4] of 10%.

With `COc1cc2c(cc1OC)[C@H]1C[C@@H](O)[C@H](CC(C)C)CN1CC2` (single isomer, unassigned; isomer d) [Isomer D] the “Percentage Inhibition of Specific Binding, α2A Receptor” value (Adrenergic α2A Receptor) was 87%, the “Percentage Inhibition of Specific Binding, D1 Receptor” value (Dopamine D1 Receptor) was 38% and the “Percentage Inhibition of Specific Binding, D2L Receptor” value (Dopamine D2L Receptor) was 58%. For the same compound, the “Percentage Inhibition … I2 Receptor” value [1] was 55%, the “Percentage Inhibition of Specific Binding, σ1 Receptor” value (Sigma σ1 Receptor) was 82% and the “Percentage Inhibition of Specific Binding, SERT” value ([2]; 10 μM solution) was 8%. The “Percentage Inhibition of Specific Binding, α2c receptor” value (α2c Adrenergic receptor) was 74%, the “Percentage Inhibition of Specific Binding, 5-HT2b receptor” value [3] was 43% and the “Percentage Inhibition of Specific Binding, 5-HT6 receptor” value [4] was 41%.
